Experimental data reported in US7648999B2, “Activator for peroxisome proliferator-activated receptor δ” (Nippon Chemiphar Co., Ltd., priority 2007, dated 2010).
Where two headings read alike, the source gives them in different places.

Key:
Type in all cases: cell-based
[1] = molecular target: T1, PPARα (GAL4-hPPARα LBD) (Homo sapiens, UniProt Q07869); test: PPARα transactivation activity (GAL4 chimera luciferase reporter in CV-1 cells)
T1 construct: Receptor expression plasmid (GAL4-hPPARα, LBD GAL4-hPPARγ LBD, GAL4-hPPARδ LBD); expressed in transfected cells; host or cells: CV-1 cells
T1 sequence (Q07869 239-466 limits assumed): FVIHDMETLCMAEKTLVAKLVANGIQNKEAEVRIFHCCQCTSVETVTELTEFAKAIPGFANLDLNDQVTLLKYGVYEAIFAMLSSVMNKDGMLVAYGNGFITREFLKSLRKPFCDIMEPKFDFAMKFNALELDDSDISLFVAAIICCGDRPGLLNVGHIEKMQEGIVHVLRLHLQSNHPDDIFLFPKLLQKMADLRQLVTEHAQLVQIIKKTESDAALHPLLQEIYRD

[2] = molecular target: T2, PPARγ (GAL4-hPPARγ LBD) (Homo sapiens, UniProt P37231); test: PPARγ transactivation activity (GAL4 chimera luciferase reporter in CV-1 cells)
T2 construct: Receptor expression plasmid (GAL4-hPPARα, LBD GAL4-hPPARγ LBD, GAL4-hPPARδ LBD); expressed in transfected cells; host or cells: CV-1 cells
T2 sequence (P37231 238-503 limits assumed): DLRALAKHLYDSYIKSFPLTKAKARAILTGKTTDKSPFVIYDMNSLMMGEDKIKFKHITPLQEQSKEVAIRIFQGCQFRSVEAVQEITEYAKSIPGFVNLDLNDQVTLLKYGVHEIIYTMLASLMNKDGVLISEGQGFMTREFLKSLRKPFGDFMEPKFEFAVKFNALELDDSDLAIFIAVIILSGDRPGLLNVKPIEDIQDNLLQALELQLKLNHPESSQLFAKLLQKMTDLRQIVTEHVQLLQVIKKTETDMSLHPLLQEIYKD

[3] = molecular target: T3, PPARδ (GAL4-hPPARδ LBD) (Homo sapiens, UniProt Q03181); test: PPARδ transactivation activity (GAL4 chimera luciferase reporter in CV-1 cells)
T3 construct: A chimeric receptor expression plasmid (GAL4-hPPARδ LBD), a reporter plasmid (UASx4-TK-LUC); expressed in transfected cells; host or cells: CV-1 cells
T3 sequence (Q03181 211-439 limits assumed): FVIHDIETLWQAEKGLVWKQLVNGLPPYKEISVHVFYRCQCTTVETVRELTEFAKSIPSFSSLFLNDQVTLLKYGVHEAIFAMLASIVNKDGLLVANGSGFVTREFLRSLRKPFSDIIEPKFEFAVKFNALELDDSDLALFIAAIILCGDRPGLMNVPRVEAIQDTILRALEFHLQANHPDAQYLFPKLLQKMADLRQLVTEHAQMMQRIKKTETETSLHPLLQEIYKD
Experimental: A chimeric receptor expression plasmid (GAL4-hPPARδ LBD), a reporter plasmid (UASx4-TK-LUC) and β-galactosidase (β-GAL) are transfected into CV-1 cells by utilizing a lipofection reagent DMRIE-C (Life Technologies).
(1) Measurement of PPARα, γ, δ Transactivation Activity
CV-1 cells were obtained from Tohoku University Aging Medical Laboratory, Medical Cell Collection Center. All test compounds were dissolved in dimethylsulfoxide (DMSO). Final concentration of DMSO was 0.1%.
CV-1 cells were seeded in 24 well culture plates at 2×10^5 cells per well, and cultured for 24 hours OPTI-MEM I Reduced Serum Medium (Life Technologies, 500 μL/well) containing 4%-fetal bovine serum (FBS). After washing with OPTI-MEM, transfection mixture (250 μL/well) containing 0.03 μg of GAL4-hPPARδ LBD, 0.25 μg of UASx-4-TK-LUC, 0.35 μg of βGAL, and 2 μL of lipofection reagent, DMRIE-C (Life Technologies) were added. The cells were incubated for 5 hours at 37° C.
The cells were washed and incubated for 40 hours in the presence of the test compound (final concentration was 10^−7M or 10^−6M)
The culture medium was removed and the cells were washed with PBS twice. A solubilizing buffer (100 μL/well) containing 25 mM Tris-PO4 (pH 7.8), 15% v/v glycerol, 2% CHAPS, 1% Lecithin, 1% BSA, 4 mM EGTA (pH 8.0), 8 mM MgCl2, 1 mM DTT was added. After the incubation for 10 minutes at room temperature, a portion (20 μL) of the solution was transferred into a 96-well plate. Subsequently, 100 μL of luciferase substrate solution (Piccagene: available from Nippon Gene Co., Ltd.) was added, and a luminous intensity per one second (luciferase activity) was measured using a microluminoreader (Type MLR-100, Corona Electrics Co., Ltd.). Each luciferase activity was corrected by the transfection efficiency which was calculated from β-galactosidase activity. The assay method of β-galactosidase activity was as follows: A portion (50 μL) of the solubilized sample was transferred into another 96-well plate; 100 μL of ONPG (2-nitrophenyl-β-galactopyranoside) solution was added and incubated for 5 minutes at room temperature. 50 μL of a reaction stopping solution (1M sodium carbonate solution) was added. Then the absorbance at 414 nm was measured.

[4] = compound at 10^−7 M, CV-1 cells, 40 hours, positive control 10^−4 M WY-14643 = 100%
[5] = compound at 10^−7 M, CV-1 cells, 40 hours, positive control 10^−5 M Rosiglitazone = 100%
[6] = compound at 10^−7 M, CV-1 cells, 40 hours, positive control 10^−4 M L-165041 = 100%
[7] = compound at 10^−7 M (value without parentheses)
[8] = compound at 10^−6 M (value in parentheses)

Relative activity for PPAR transactivation, α [1, 7] | Relative activity for PPAR transactivation, γ [2, 7] | Relative activity for PPAR transactivation, δ [3, 7] | Molecule | also measured
0 % of control | 0 % of control | 42 % of control | Cc1cc(OCC(=O)O)ccc1C(=O)CCc1sc(-c2ccc(C(F)(F)F)cc2)nc1C(C)C [Example 14, [4-[3-[4-Isopropyl-2-(4-trifluoromethyl)phenyl-5-thiazolyl]propionyl]-3-methylphenoxy]acetic acid] | –
62 % of control | 3 % of control | 57 % of control | Cc1cc(OC(C)(C)C(=O)O)ccc1C(=O)CCc1sc(-c2ccc(C(F)(F)F)cc2)nc1C(C)C [Example 16, [4-[3-[4-Isopropyl-2-(4-trifluoromethyl)phenyl-5-thiazolyl]propionyl]-3-methylphenoxy]-2-methylpropionic acid] | –
0 % of control | 1 % of control | 70 % of control | CCCc1cc(C(=O)CCc2sc(-c3ccc(C(F)(F)F)cc3)nc2C(C)C)ccc1OCC(=O)O [Example 18, [4-[3-[4-Isopropyl-2-(4-trifluoromethyl)phenyl-5-thiazolyl]propionyl]-2-propylphenoxy]acetic acid] | –
0 % of control | 0 % of control | 75 % of control | Cc1cc(C(=O)C=Cc2sc(-c3ccc(C(F)(F)F)cc3)nc2C(C)C)ccc1OCC(=O)O [Example 24, [4-[3-[4-Isopropyl-2-(4-trifluoromethyl)phenyl-5-thiazolyl]propenoyl]-2-methylphenoxy]acetic acid] | –
– | – | 61 % of control | Cc1cc(C(=O)C=Cc2sc(-c3ccc(C(F)(F)F)cc3)nc2C(C)C)ccc1OC(C)(C)C(=O)O [Example 25, 2-[4-[3-[4-Isopropyl-2-(4-trifluoromethyl)phenyl-5-thiazolyl]propenoyl]-2-methylphenoxy]-2-methylpropionic acid] | –
0 % of control | 1 % of control | 44 % of control | CC(C)c1nc(-c2ccc(C(F)(F)F)cc2)sc1CCC(=O)c1ccc(OCC(=O)O)c(Cl)c1 [Example 33, [4-[3-[4-Isopropyl-2-(4-trifluoromethyl)phenyl-5-thiazolyl]propionyl]-2-chlorophenoxy]acetic acid] | –

Second part, the molecule before the results:

Molecule | Relative activity for PPAR transactivation, α [1, 7] | Relative activity for PPAR transactivation, γ [2, 7] | Relative activity for PPAR transactivation, δ [3, 7] | also measured
4-[3-[4-Methyl-2-(4-trifluoromethyl)phenyl-5-thiazolyl]propionyl]-2-methylphenoxy]acetic acid [Example 44] | – | – | – | Relative activity for PPAR transactivation, α [1]: (0) % of control; Relative activity for PPAR transactivation, γ [2]: (0) % of control; PPARδ transactivation activity / activating effect (in words) [3]: inferior in the PPARδ transactivation activity; Relative activity for PPAR transactivation, δ [3]: (38) % of control
Cc1cc(C(=O)CCc2sc(-c3ccc(C(F)(F)F)cc3)nc2C(C)C)ccc1OCC(=O)O [Example 3, [4-[3-[2-(4-Trifluoromethyl)phenyl-4-isopropyl-5-thiazolyl]propionyl]-2-methylphenoxy]acetic acid] | – | – | – | Relative activity for PPAR transactivation, α [1, 4]: 0 % of control; Relative activity for PPAR transactivation, γ [2, 5]: 5 % of control; Relative activity for PPAR transactivation, δ [3, 6]: 101 % of control
Cc1cc(C(=O)CCc2nc(-c3ccc(Cl)cc3O)oc2C(C)C)ccc1OCC(=O)O [Example 6, [4-[3-[2-(2-Hydroxy-4-chlorophenyl)-5-isopropyl-4-oxazolyl]propionyl]-2-methylphenoxy]acetic acid] | – | – | – | Relative activity for PPAR transactivation, α [1, 4]: 0 % of control; Relative activity for PPAR transactivation, γ [2, 5]: 6 % of control; Relative activity for PPAR transactivation, δ [3, 6]: 73 % of control
CCCCCCc1nc(-c2ccc(C(F)(F)F)cc2)sc1CCC(=O)c1ccc(OCC(=O)O)c(C)c1 [Example 11, [4-[3-[4-Hexyl-2-(4-trifluoromethyl)phenyl-5-thiazolyl]propionyl]-2-methylphenoxy]acetic acid] | 0 % of control | 1 % of control | 56 % of control | –
CCCCCCc1nc(-c2ccc(C(F)(F)F)cc2)sc1CCC(=O)c1ccc(OC(C)(C)C(=O)O)c(C)c1 [Example 12, 2-[4-[3-[4-Hexyl-2-(4-trifluoromethyl)phenyl-5-thiazolyl]propionyl]-2-methylphenoxy]-2-methylpropionic acid] | 75 % of control | 31 % of control | 45 % of control | –
Cc1cc(C=CCc2sc(-c3ccc(C(F)(F)F)cc3)nc2C(C)C)ccc1OC(C)(C)C(=O)O [Example 13, 2-[4-[3-[4-Isopropyl-2-(4-trifluoromethyl)phenyl-5-thiazolyl]-1-propenyl]-2-methylphenoxy]-2-methylpropionic acid] | 63 % of control | 17 % of control | 62 % of control | –
C=CCc1cc(C(=O)CCc2sc(-c3ccc(C(F)(F)F)cc3)nc2C(C)C)ccc1OCC(=O)O [Example 19, 2-Allyl-4-[3-[4-isopropyl-2-(4-trifluoromethyl)phenyl-5-thiazolyl]propionyl]phenoxyacetic acid] | 0 % of control | 2 % of control | 86 % of control | –
Cc1cc(C(=O)CCc2nc(-c3ccc(C(F)(F)F)cc3)sc2C(C)C)ccc1OCC(=O)O [Example 37, [4-[3-[5-Isopropyl-2-(4-trifluoromethyl)phenyl-4-thiazolyl]propionyl]-2-methylphenoxy]acetic acid] | – | – | – | Relative activity for PPAR transactivation, δ [3]: (71) % of control
Cc1ccc(C(=O)CCc2sc(-c3ccc(C(F)(F)F)cc3)nc2C(C)C)cc1OCC(=O)O [Example 41, [5-[3-[4-Isopropyl-2-(4-trifluoromethyl)phenyl-5-thiazolyl]propionyl]-2-methylphenoxy]acetic acid] | – | – | – | Relative activity for PPAR transactivation, α [1, 8]: (5) % of control; Relative activity for PPAR transactivation, γ [2, 8]: (60) % of control
Cc1ccc(C(=O)CCc2sc(-c3ccc(C(F)(F)F)cc3)nc2C(C)C)cc1OC(C)(C)C(=O)O [Example 42, 2-[5-[3-[4-Isopropyl-2-(4-trifluoromethyl)phenyl-5-thiazolyl]propionyl]-2-methylphenoxy]-2-methylpropionic acid] | – | – | – | Relative activity for PPAR transactivation, α [1, 8]: (68) % of control; Relative activity for PPAR transactivation, γ [2, 8]: (55) % of control
[4-[3-[4-Isopropyl-2-(4-methoxyphenyl)-5-thiazolyl]propionyl]-2-methylphenoxy]propionic acid [Example 26] | – | – | 18 % of control | –
